Laboratory results taken from patent US5008273A, “Amino acid derivatives and their pharmaceutical use” (Boehringer Ingelheim GmbH, priority 1985, dated 1991).

Biological target: angiotensin converting enzyme (Homo sapiens, UniProt P12821)
Assay: inhibition of the isolated angiotensin converting enzyme
Type: biochemical
Source text: The following values were obtained for the inhibition of the isolated angiotensin converting enzyme: […]

Chain of angiotensin converting enzyme (P12821 30-1306, species assumed): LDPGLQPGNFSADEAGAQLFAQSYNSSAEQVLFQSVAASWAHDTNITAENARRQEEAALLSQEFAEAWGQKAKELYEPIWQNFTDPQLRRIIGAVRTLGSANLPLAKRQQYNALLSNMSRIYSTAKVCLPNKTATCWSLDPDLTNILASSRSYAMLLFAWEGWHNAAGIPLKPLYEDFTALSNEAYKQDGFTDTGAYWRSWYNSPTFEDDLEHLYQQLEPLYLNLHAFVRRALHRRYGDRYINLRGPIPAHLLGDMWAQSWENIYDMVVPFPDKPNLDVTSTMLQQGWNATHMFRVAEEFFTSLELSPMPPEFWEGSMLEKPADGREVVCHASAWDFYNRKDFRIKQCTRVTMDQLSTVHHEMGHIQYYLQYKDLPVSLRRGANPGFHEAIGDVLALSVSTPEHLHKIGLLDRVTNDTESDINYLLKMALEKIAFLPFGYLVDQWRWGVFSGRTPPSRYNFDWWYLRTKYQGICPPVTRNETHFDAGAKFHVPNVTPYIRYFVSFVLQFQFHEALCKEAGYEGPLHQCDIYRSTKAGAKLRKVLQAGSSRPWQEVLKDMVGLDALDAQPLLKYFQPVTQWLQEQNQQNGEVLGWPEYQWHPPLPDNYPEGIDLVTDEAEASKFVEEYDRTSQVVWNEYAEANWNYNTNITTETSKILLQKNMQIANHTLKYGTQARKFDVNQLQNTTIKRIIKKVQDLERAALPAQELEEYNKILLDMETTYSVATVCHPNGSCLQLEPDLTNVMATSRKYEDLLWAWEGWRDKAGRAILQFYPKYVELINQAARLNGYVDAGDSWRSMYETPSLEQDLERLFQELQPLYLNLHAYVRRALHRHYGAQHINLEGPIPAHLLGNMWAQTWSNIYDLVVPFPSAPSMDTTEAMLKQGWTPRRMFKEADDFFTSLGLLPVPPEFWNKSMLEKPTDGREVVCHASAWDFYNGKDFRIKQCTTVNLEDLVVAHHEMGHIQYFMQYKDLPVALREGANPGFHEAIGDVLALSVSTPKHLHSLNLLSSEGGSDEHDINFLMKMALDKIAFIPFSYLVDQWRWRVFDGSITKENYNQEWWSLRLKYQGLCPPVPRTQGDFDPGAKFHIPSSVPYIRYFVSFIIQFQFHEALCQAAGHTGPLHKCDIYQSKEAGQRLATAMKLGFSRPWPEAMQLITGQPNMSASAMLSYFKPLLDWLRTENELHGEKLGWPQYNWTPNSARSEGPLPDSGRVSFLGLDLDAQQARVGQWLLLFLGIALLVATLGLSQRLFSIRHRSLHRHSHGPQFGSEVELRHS

Q: With `NCCCC[C@H](N[C@@H](CCc1ccccc1)C(=O)O)C(=O)N1Cc2sccc2C[C@H]1C(=O)O` [Example 7, N-[N-(1(S)-Carboxy-3-phenylpropyl)-L-lysyl]-4,5,6,7-tetrahydro-thieno[2,3-c]pyridine-5(S)-carboxylic acid] as the molecule, how does the IC50 read?
A: The IC50 was 14 nM.

Q: Which IC50 does the source give for `NCCCC[C@H](N[C@@H](CCc1ccccc1)C(=O)O)C(=O)N1CCc2sccc2[C@H]1C(=O)O` [Example 2, N-[N-(1(S)-Carboxy-3-phenylpropyl)-L-lysyl]4,5,6,7-tetrahydro-thieno[3,2-c]pyridine-4(S)-carboxylic acid] here?
A: The IC50 was 3.5 nM.

Q: `NCCCC[C@H](N[C@@H](CCc1ccccc1)C(=O)O)C(=O)N1Cc2ccsc2C[C@H]1C(=O)O` [Example 10, N-[N-(1(S)-Carboxy-3-phenylpropyl)-L-lysyl]-4,5,6,7-tetrahydro-thieno[3,2-c]pyridine-6(S)-carboxylic acid] was tested. Which IC50 did it give?
A: The IC50 was 2.9 nM.

Q: With `NCCCC[C@H](N[C@@H](CCc1ccccc1)C(=O)O)C(=O)N1CCc2ccsc2[C@@H]1C(=O)O` [Example 4, N-[N-(1(S)-Carboxy-3-phenylpropyl)-L-lysyl]4,5,6,7-tetrahydro-thieno[2,3-c]pyridine-7(S)-carboxylic acid] as the molecule, how does the IC50 read?
A: The IC50 was 18 nM.
